Laboratory results from patent US7071293B1, “Alpha helical peptides with broad spectrum antimicrobial activity that are insensitive to salt” (priority 1999, dated 2006).
Where two headings read alike, the source gives them in different places. Ends that are not written are not given here.

Key:
MRSA ATCC 33591 = conditions: for MIC MRSA [NaCl] High / MIC MRSA [NaCl] Low: ATCC 33591, pH 7.4
P. aeruginosa MR 3007 = conditions: for MIC P. aeruginosa [NaCl] High / MIC P. aeruginosa [NaCl] Low: MR 3007, pH 7.4
P. aeruginosa PAO1 [1] = assay: Relative time for killing (luminescence measured at intervals); format: cell-based; conditions: peptide at ten times its EC50 (SMAP29X-18D 15.7 X, SMAP29X-14A 17.4 X), 25 mM ionic strength
S. aureus 930918-3 = conditions: for MIC S. aureus [NaCl] High / MIC S. aureus [NaCl] Low: 930918-3, pH 7.4
E. coli ML-35p = conditions: for MIC E. coli [NaCl] High: high salt underlay (10 mM sodium phosphate buffer +100 mM NaCl, pH 7.4); for MIC E. coli [NaCl] High / MIC E. coli [NaCl] Low: Table 13; for MIC E. coli [NaCl] Low: low salt underlay (10 mM sodium phosphate buffer, pH 7.4); for E. coli ML-35p MIC, 0 mM NaCl: underlay 0 mM NaCl; for E. coli ML-35p MIC, 0 mM NaCl / E. coli ML-35p MIC, 175 mM NaCl: Table 15; for E. coli ML-35p MIC, 175 mM NaCl: underlay 175 mM NaCl
E. coli DH5α = conditions: for EC50: DH5α; for EC50 E. coli DH5α: ionic strength 25 mM, avg ± sem
P. aeruginosa PAO1 [2] = conditions: avg ± sem
B. cepacia ATCC 25416 = assay: Two stage radial diffusion assay (MIC); format: cell-based; set-up: unit not given here; conditions: underlay 0 mM NaCl
L. monocytogenes EGD = assay: Two stage radial diffusion assay (MIC); format: cell-based; set-up: unit not given here; conditions: underlay 0 mM NaCl
N. gonorrhoeae = assay: Two stage radial diffusion assay (MIC); format: cell-based; set-up: unit not given here; conditions: done only at 100 mM NaCl; for N. gonorrhoeae F 62 (serum-sensitive): strain F 62 (serum-sensitive); for N. gonorrhoeae FA 19 (serum-resistant): strain FA 19 (serum-resistant)

Row | Substance | MIC MRSA [NaCl] High (MRSA ATCC 33591) [µg/mL] | MIC MRSA [NaCl] Low (MRSA ATCC 33591) [µg/mL] | MIC P. aeruginosa [NaCl] High (P. aeruginosa MR 3007) [µg/mL] | MIC P. aeruginosa [NaCl] Low (P. aeruginosa MR 3007) [µg/mL] | Half-time of Killing (min. avg. ± sem) (P. aeruginosa PAO1 [1]) [min] | MIC S. aureus [NaCl] High (S. aureus 930918-3) [µg/mL] | MIC S. aureus [NaCl] Low (S. aureus 930918-3) [µg/mL] | MIC E. coli [NaCl] High (E. coli ML-35p) [µg/mL] | MIC E. coli [NaCl] Low (E. coli ML-35p) [µg/mL] | EC50 (E. coli DH5α) [nM] | EC50 E. coli DH5α (E. coli DH5α) [µg/mL] | EC50 P. aeruginosa PAO1 (P. aeruginosa PAO1 [2]; ionic strength 25 mM) [µg/mL] | MRSA ATCC 33591 MIC, 0 mM NaCl (MRSA ATCC 33591) [µg/mL] | B. cepacia ATCC 25416 in underlays of low, normal and high salinity, 0 mM NaCl (B. cepacia ATCC 25416) | L. monocytogenes in underlays of low, normal and high salinity, 0 mM NaCl (L. monocytogenes EGD) | P. aeruginosa MR-3007 MIC, 0 mM NaCl (P. aeruginosa MR 3007) [µg/mL] | S. aureus 930918-3 MIC, 0 mM NaCl (S. aureus 930918-3) [µg/mL] | E. coli ML-35p MIC, 0 mM NaCl (E. coli ML-35p) [µg/mL] | N. gonorrhoeae F 62 (serum-sensitive) (N. gonorrhoeae) | N. gonorrhoeae FA 19 (serum-resistant) (N. gonorrhoeae) | other results
1 | GLRKRLRKFRNKIKEKLKKIG [CAP18-21a] | >250 | 19.4 | 0.9 | 0.7 | 9.2 ± 3.4 | 2.2 | 1.8 | 0.4 | 2.3 | 190 ± 10 | 0.48 ± 0.03 | 0.58 ± 0.09 |  |  |  |  |  |  |  |  | EC50 P. aeruginosa PAO1 (P. aeruginosa PAO1 [2]; ionic strength 175 mM): 0.54 ± 0.10 µg/mL
2 | GLRKRLRKFRNKIKEKLKKIGQKIQGLLPKLAPRTDY [CAP 18] | 6.1 | 8.2 | 1.6 | 0.2 | 4.0 ± 1.4 | 2.8 | 1.8 | 0.4 | 0.2 | 150 ± 20 | 0.69 ± 0.08 | 0.98 ± 0.24 |  |  |  |  |  |  |  |  | EC50 P. aeruginosa PAO1 (P. aeruginosa PAO1 [2]; ionic strength 175 mM): 0.50 ± 0.10 µg/mL
3 | GLRKRLRKFRNKIKEKLKKIGQKIQGLLPKLAPRTDY [Peptide 18] |  |  |  |  |  |  |  |  |  |  |  |  | 8.2 | >79.1 | 0.6 | 2.1 | 1.8 | 2.8 | 0.7 | 0.6 | E. coli DH-5α MIC, 0 mM NaCl (E. coli DH-5α; DH-5α): 0.84 µg/mL; P. aeruginosa PA-01 MIC, 0 mM NaCl (P. aeruginosa PA-01): 0.88 µg/mL
4 | KIKEKLKKIGQKIQG [Peptide 25] |  |  |  |  |  |  |  |  |  |  |  |  | >250 | >250 | >250 | 8.7 | >250 | 1.6 | >79.1 | >250 | 
5 | KIKEKLKKIGQKIQGLL [Peptide 26] |  |  |  |  |  |  |  |  |  |  |  |  | >250 | >250 | 5.7 | 1.0 | >250 | 0.4 | >79.1 | >250 | 
6 | KNLRRIIRKIIHIIKKYG [Peptide 8] |  |  |  |  |  |  |  |  |  |  |  |  | 0.77 ± 0.04 | 20.2 | 2.1 | 0.67 ± 0.12 | 0.84 ± 0.14 | 0.45 ± 0.10 | 0.5 | 0.2 | MRSA ATCC 33591 MIC, 175 mM NaCl (MRSA ATCC 33591): 0.89 ± 0.05 µg/mL; E. coli DH-5α MIC, 0 mM NaCl (E. coli DH-5α; DH-5α): 0.26 ± 0.05 µg/mL; E. coli DH-5α MIC, 175 mM NaCl (E. coli DH-5α; DH-5α): 0.35 ± 0.09 µg/mL; P. aeruginosa MR-3007 MIC, 175 mM NaCl (P. aeruginosa MR 3007): 0.59 ± 0.05 µg/mL; S. aureus 930918-3 MIC, 175 mM NaCl (S. aureus 930918-3): 0.86 ± 0.06 µg/mL; P. aeruginosa PA-01 MIC, 0 mM NaCl (P. aeruginosa PA-01): 0.83 ± 0.05 µg/mL; P. aeruginosa PA-01 MIC, 175 mM NaCl (P. aeruginosa PA-01): 0.82 ± 0.05 µg/mL; E. coli ML-35p MIC, 175 mM NaCl (E. coli ML-35p): 0.41 ± 0.06 µg/mL
7 | KNLRRIIRKIIHIIKKYGPTILRIIRIIG-NH2 [Peptide 28] |  |  |  |  |  |  |  |  |  |  |  |  | 0.32 ± 0.04 | 17.0 | 0.4 | 0.34 ± 0.22 | 0.55 ± 0.17 | 0.16 ± 0.03 | 0.1 | 0.1 | MRSA ATCC 33591 MIC, 175 mM NaCl (MRSA ATCC 33591): 1.57 ± 0.30 µg/mL; E. coli DH-5α MIC, 175 mM NaCl (E. coli DH-5α; DH-5α): 0.40 ± 0.09 µg/mL; E. coli DH-5α MIC, 0 mM NaCl (E. coli DH-5α; underlay 0 mM NaCl): 0.0042 µg/mL; P. aeruginosa MR-3007 MIC, 175 mM NaCl (P. aeruginosa MR 3007): 0.49 ± 0.06 µg/mL; S. aureus 930918-3 MIC, 175 mM NaCl (S. aureus 930918-3): 1.14 ± 0.23 µg/mL; P. aeruginosa PA-01 MIC, 0 mM NaCl (P. aeruginosa PA-01): 0.53 ± 0.14 µg/mL; P. aeruginosa PA-01 MIC, 175 mM NaCl (P. aeruginosa PA-01): 1.17 ± 0.23 µg/mL; E. coli ML-35p MIC, 175 mM NaCl (E. coli ML-35p): 0.58 ± 0.12 µg/mL
8 | KRLRKFRNKIKEKLKKIG [CAP18-18] | >250 | 14.9 | 3.2 | 2.1 | 19.5 ± 8.2 | 29.0 | 9.7 | 1.5 | 2.8 | 200 ± 30 | 0.47 ± 0.06 | 1.05 ± 0.37 |  |  |  |  |  |  |  |  | EC50 P. aeruginosa PAO1 (P. aeruginosa PAO1 [2]; ionic strength 175 mM): 1.59 ± 0.29 µg/mL
9 | KRLRKFRNKIKEKLKKIG [Peptide 20] |  |  |  |  |  |  |  |  |  |  |  |  | 14.9 | >250 | 2.3 | 2.9 | 9.7 | 2.3 | >250 | >250 | 
10 | LRKFRNKIKEKLKKIGQKI [CAP18-19] | >79.1 | 4.5 | 26.7 | 1.0 | 8.0 ± 1.6 | >79.1 | 6.0 | 18.2 | 0.4 | 960 ± 130 | 2.27 ± 0.30 | 1.65 ± 0.27 |  |  |  |  |  |  |  |  | EC50 P. aeruginosa PAO1 (P. aeruginosa PAO1 [2]; ionic strength 175 mM): 3.06 ± 0.36 µg/mL
11 | LRKFRNKIKEKLKKIGQKI [Peptide 22] |  |  |  |  |  |  |  |  |  |  |  |  | 4.5 | >250 | 5.9 | 0.7 | 6.0 | 0.1 | >79.1 | >250 | 
12 | LRKFRNKIKEKLKKIGQKIQG [Peptide 23] |  |  |  |  |  |  |  |  |  |  |  |  | 10.3 | >250 | 5.5 | 1.5 | 16.3 | 0.2 | >79.1 | >250 | 
13 | LRRIIRKIIHIIKK-NH2 [Peptide 11] |  |  |  |  |  |  |  |  |  |  |  |  | 4.42 ± 1.73 | >79.1 | 0.7 | 0.92 ± 0.06 | 1.38 ± 0.21 | 0.63 ± 0.05 | 0.8 | 0.9 | MRSA ATCC 33591 MIC, 175 mM NaCl (MRSA ATCC 33591): >79.1 µg/mL; E. coli DH-5α MIC, 0 mM NaCl (E. coli DH-5α; DH-5α): 0.85 ± 0.04 µg/mL; E. coli DH-5α MIC, 175 mM NaCl (E. coli DH-5α; DH-5α): 5.92 ± 1.02 µg/mL; P. aeruginosa MR-3007 MIC, 175 mM NaCl (P. aeruginosa MR 3007): 20.1 ± 6.9 µg/mL; S. aureus 930918-3 MIC, 175 mM NaCl (S. aureus 930918-3): 16.4 ± 5.1 µg/mL; P. aeruginosa PA-01 MIC, 0 mM NaCl (P. aeruginosa PA-01): 0.96 ± 0.05 µg/mL; P. aeruginosa PA-01 MIC, 175 mM NaCl (P. aeruginosa PA-01): 6.51 ± 1.02 µg/mL; E. coli ML-35p MIC, 175 mM NaCl (E. coli ML-35p): 49.2 ± 15.2 µg/mL
14 | RKFRNKIKEKLKKIG [Peptide 24] |  |  |  |  |  |  |  |  |  |  |  |  | >250 | >250 | 24.1 | 5.1 | 19.5 | 9.7 | >250 | >250 | 
15 | RKRLRKFRNKIKEKLKKIGQKI [CAP18-22] | >79.1 | 8.1 | 7.6 | 0.7 | 9.8 ± 2.5 | >79.1 | 7.9 | 1.7 | 0.1 | 520 ± 160 | 1.47 ± 0.44 | 1.38 ± 0.49 |  |  |  |  |  |  |  |  | EC50 P. aeruginosa PAO1 (P. aeruginosa PAO1 [2]; ionic strength 175 mM): 0.88 ± 0.12 µg/mL
16 | RKRLRKFRNKIKEKLKKIGQKI [Peptide 21] |  |  |  |  |  |  |  |  |  |  |  |  | 8.1 | >250 | 7.0 | 0.2 | 7.9 | 0.2 | 22.0 | >250 | 
